Tested on: ventral prostate and seminal vesicle weights, testosterone propionate-treated castrated male Sprague Dawley rats
Experiment: Ventral Prostate and Seminal Vesicle Weight In Vivo Assay
Details: percent inhibition of testosterone-enhanced prostate weight; immature castrated male rats; test compound usually orally 40 mg/kg (2 mg/day) once daily for five days plus testosterone propionate 2 mg/kg s.c.
Method: Ventral Prostate and Seminal Vesicle Weight In Vivo Assay
Immature (approximately 50 g) castrated male Sprague Dawley rats (Charles River) were treated once daily for five days with test compound (usually given orally at 40 mg/kg in a volume of 0.3 mL, in 30% cyclodextrin or 0.5% methylcellulose vehicle) and with testosterone propionate (given subcutaneously by injection at the nape of the neck at 2 mg/kg, in a volume of 0.1 mL in sesame oil). On the sixth day, the rats were euthanized by asphyxiation in carbon dioxide. Ventral prosatates and seminal vesicles were removed and their wet weights determined. Test compound activity was determined as the percent inhibition of testosterone-enhanced tissue weights, with a vehicle-treated control group set to zero percent and a testosterone alone-treated control group set to 100%.
Representative compounds of the present invention were tested according to the procedure described, with results as listed in Table 7 below. A test compound is listed as “active” if the non weight adjusted prostate weight was ≦40 mg or the % Inhibition prostate weight, body weight adjusted was ≧40%@ 2 mg/day dosage. ID50's, if determined, of ≦15 mg/day also indicated an “active” compound.

| Molecule | Activity |
| --- | --- |
| 3,3,3-Trifluoro-2-methoxy-2-phenyl-propionic acid 1-(5,6-dichloro-1H-benzamidazol-2-yl)-2,2,2-trifluoro-1-methyl-ethyl ester [Compound 107] | active |
| CSCC(C)(O)c1nc2cc(Cl)c(Cl)cc2n1C (stereo not shown) [Compound 12] | active |
| Cn1c(C(C)(O)CSCc2ccccc2)nc2cc(Cl)c(Cl)cc21 (stereo not shown) [Compound 23] | active |
| O=[N+]([O-])c1cc2nc(C(O)C(F)(F)F)[nH]c2cc1[N+](=O)[O-] (stereo not shown) [Compound 155, 1-(5,6-Dinitro-1H-benzoimidazol-2-yl-)2,2,2-trifluoro-ethanol] | inactive |

Reference: patent publication US7795446B2, “Benzimidazole derivatives useful as selective androgen receptor modulators (SARMS)” (priority 2004, dated 2010)
